Results from patent US20160120863A1, “SLC2A TRANSPORTER INHIBITORS” (IOMET PHARMA LTD., priority 2013, published 2016).

Target: T1, human GLUT1 (Homo sapiens, UniProt P11166)
T1 construct: expressed in transfected cells
T1 sequence (P11166 1-492): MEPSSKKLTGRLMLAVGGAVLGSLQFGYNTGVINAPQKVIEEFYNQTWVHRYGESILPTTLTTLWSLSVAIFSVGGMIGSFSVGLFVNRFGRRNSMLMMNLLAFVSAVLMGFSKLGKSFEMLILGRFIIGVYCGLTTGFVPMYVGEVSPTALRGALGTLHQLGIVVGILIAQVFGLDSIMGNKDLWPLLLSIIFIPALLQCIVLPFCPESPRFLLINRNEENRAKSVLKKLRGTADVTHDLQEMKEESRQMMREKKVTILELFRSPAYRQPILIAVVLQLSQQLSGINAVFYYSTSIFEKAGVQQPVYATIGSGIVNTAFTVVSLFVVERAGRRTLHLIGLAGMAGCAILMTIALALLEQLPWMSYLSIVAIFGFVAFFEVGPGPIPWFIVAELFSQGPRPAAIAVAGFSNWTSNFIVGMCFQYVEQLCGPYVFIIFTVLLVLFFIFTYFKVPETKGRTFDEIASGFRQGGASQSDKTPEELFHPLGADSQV
Assay: [3H]-deoxy-D-glucose uptake assay, GLUT1
Format: cell-based
Details: [3H]-deoxy-D-glucose uptake in HEK293 cells stably expressing human GLUT1
Description: HEK293 cells were engineered to stably express either human GLUT1, GLUT2, GLUt3 or GLUT4 by transfection with the pReceiver-Lv105 plasmid, containing either hGLUT1, hGLUT2, hGLUT3, or hGLUT4 gene constructs with lipofectamine 2000, hGLUT1- hGLUT2- hGLUT3- or hGLUT4-overexpressing polyclonal populations were isolated under purinomycin selective pressure (1 μg/ml) and maintained in Dulbecco's modified Eagle's medium supplemented with 1 μg/ml purinomycin+10% foetal bovine serum (FBS).
60,000 cells per well were seeded overnight into poly-D-lysine coasted 96-well plates. […] 90 μl of test compounds were added in glucose-free uptake buffer and cells were incubated at 37° C. for 30 min.
Cells were then washed twice with ice-cold PBS and 100 μl of Microscint-20 was added per well. Glucose uptake was quantified with a scintillation counter. The half maximal inhibitory concentration (IC50) (a measure of the effectiveness of the test compound in inhibiting glucose uptake) was determined.

| Structure (SMILES) | GLUT1 pIC50 |
| --- | --- |
| Clc1ccc(-c2nc3ccc(-c4ccccc4)cn3c2CN2CCOCC2)cc1 [Compound 1] | ++ (pIC50 5.00-5.99) |
| Clc1ccc(-c2nc3ccccn3c2CN2CCOCC2)cc1 [Compound 3] | ++ (pIC50 5.00-5.99) |
| Clc1ccc(-c2nc3ccc(Cl)cn3c2CN2CCSCC2)cc1 [Compound 4] | + (pIC50 4.00-4.99) |
| Clc1ccc(-c2nc3ccc(Cl)cn3c2CN2CCCCC2)cc1 [Compound 5] | + (pIC50 4.00-4.99) |
| Cc1ccc2nc(-c3ccccc3)c(CN3CCSCC3)n2c1 [Compound 6] | +− (pIC50 < 4.00) |
| Cc1ccc2nc(-c3ccccc3)c(CN3CCN(c4ccccc4F)CC3)n2c1 [Compound 7] | + (pIC50 4.00-4.99) |
| CCS(=O)(=O)N1CCN(Cc2c(-c3cccc([N+](=O)[O-])c3)nc3ccc(-c4ccccc4)cn23)CC1 [Compound 9] | ++ (pIC50 5.00-5.99) |
| Cc1ccc(-c2cn3cc(-c4ccccc4)ccc3n2)cc1 [Compound 11] | + (pIC50 4.00-4.99) |
| O=[N+]([O-])c1ccc(-c2nc3ccc(-c4ccccc4)cn3c2CN2CCNCC2)cc1 [Compound 12] | + (pIC50 4.00-4.99) |
| O=C(c1cccs1)N1CCN(Cc2c(-c3ccc([N+](=O)[O-])cc3)nc3ccc(-c4ccccc4)cn23)CC1 [Compound 13] | +++ (pIC50 ≧ 6.00) |
| O=C(c1ccco1)N1CCN(Cc2c(-c3cccc([N+](=O)[O-])c3)nc3ccc(-c4ccccc4)cn23)CC1 [Compound 15] | ++ (pIC50 5.00-5.99) |
| COc1cccc(-c2nc3ccc(-c4ccccc4)cn3c2CN2CCN(C(=O)C3CCC3)CC2)c1 [Compound 16] | ++ (pIC50 5.00-5.99) |
| COCCNC(=O)CCc1c(-c2ccc([N+](=O)[O-])cc2)nc2ccc(-c3ccccc3)cn12 [Compound 17] | +− (pIC50 < 4.00) |
| O=C(COCc1ccccc1)N1CCN(Cc2c(-c3ccc(Cl)cc3)nc3ccc(-c4ccccc4)cn23)CC1 [Compound 18] | +++ (pIC50 ≧ 6.00) |
| Cc1cccc(C)c1NC(=O)N1CCN(Cc2c(-c3ccc(Cl)cc3)nc3ccc(-c4ccccc4)cn23)CC1 [Compound 19] | +++ (pIC50 ≧ 6.00) |
| COc1cccc(-c2nc3ccc(-c4ccccc4)cn3c2CN2CCN(C(=O)c3cccs3)CC2)c1 [Compound 20] | +++ (pIC50 ≧ 6.00) |
| O=C(c1cccc([N+](=O)[O-])c1)N1CCN(Cc2c(-c3ccc(Cl)cc3)nc3ccc(-c4ccccc4)cn23)CC1 [Compound 21] | ++ (pIC50 5.00-5.99) |
| O=C(C1CCCC1)N1CCN(Cc2c(-c3ccc([N+](=O)[O-])cc3)nc3ccc(-c4ccccc4)cn23)CC1 [Compound 24] | +++ (pIC50 ≧ 6.00) |
| CCS(=O)(=O)N1CCN(Cc2c(-c3cccc(OC)c3)nc3ccc(-c4ccccc4)cn23)CC1 [Compound 25] | ++ (pIC50 5.00-5.99) |

| Structure (SMILES) | GLUT1 pIC50 |
| --- | --- |
| COc1cccc(-c2nc3ccc(-c4ccccc4)cn3c2CN2CCN(C(=O)C3CC3)CC2)c1 [Compound 26] | ++ (pIC50 5.00-5.99) |
| Clc1ccc(-c2nc3ccc(Cl)cn3c2CN2CCOCC2)cc1 [Compound 27] | ++ (pIC50 5.00-5.99) |
| CC1CN(Cc2c(-c3ccccc3)nc3ccc(Cl)cn23)CC(C)O1 (stereo not drawn) [Compound 28] | ++ (pIC50 5.00-5.99) |
| CC1CN(Cc2c(-c3ccccc3)nc3ccccn23)CC(C)O1 (stereo not drawn) [Compound 29] | + (pIC50 4.00-4.99) |
| Cc1ccc2nc(-c3ccccc3)c(CN3CCNC(=O)C3)n2c1 [Compound 30] | +− (pIC50 < 4.00) |
| O=C(C1CCC1)N1CCN(Cc2c(-c3cccc([N+](=O)[O-])c3)nc3ccc(-c4ccccc4)cn23)CC1 [Compound 33] | ++ (pIC50 5.00-5.99) |
| COc1cccc(-c2nc3ccc(-c4ccccc4)cn3c2CN2CCN(C(=O)CC(C)C)CC2)c1 [Compound 34] | ++ (pIC50 5.00-5.99) |
| COc1cccc(-c2nc3ccc(-c4ccccc4)cn3c2CN2CCN(C(=O)C3CCCC3)CC2)c1 [Compound 35] | +++ (pIC50 ≧ 6.00) |
| COc1ccc(C(=O)N2CCN(Cc3c(-c4ccc(OC)cc4)nc4ccc(-c5ccccc5)cn34)CC2)cc1 [Compound 36] | +++ (pIC50 ≧ 6.00) |
| CC(C)(C)CC(=O)N1CCN(Cc2c(-c3ccc([N+](=O)[O-])cc3)nc3ccc(-c4ccccc4)cn23)CC1 [Compound 38] | ++ (pIC50 5.00-5.99) |
| COc1cccc(-c2nc3ccc(-c4ccccc4)cn3c2CN2CCN(C(=O)c3ccccc3Cl)CC2)c1 [Compound 39] | + (pIC50 4.00-4.99) |
| Cc1ccc(C(=O)N2CCN(Cc3c(-c4ccc(F)cc4)nc4ccc(-c5ccccc5)cn34)CC2)cc1 [Compound 40] | ++ (pIC50 5.00-5.99) |
| CC(C)(C)NC(=O)N1CCN(Cc2c(-c3ccc(Cl)cc3)nc3ccc(-c4ccccc4)cn23)CC1 [Compound 41] | ++ (pIC50 5.00-5.99) |
| CC(C)(C)c1ccc(C(=O)N2CCN(Cc3c(-c4ccc(Cl)cc4)nc4ccc(-c5ccccc5)cn34)CC2)cc1 [Compound 42] | + (pIC50 4.00-4.99) |
| CC(C)CC(=O)N1CCN(Cc2c(-c3ccc(Cl)cc3)nc3ccc(-c4ccccc4)cn23)CC1 [Compound 43] | +++ (pIC50 ≧ 6.00) |
| O=C(c1ccccc1)N1CCN(Cc2c(-c3ccc(Cl)cc3)nc3ccc(-c4ccccc4)cn23)CC1 [Compound 44] | +++ (pIC50 ≧ 6.00) |
| O=C(c1ccccc1F)N1CCN(Cc2c(-c3ccc(Cl)cc3)nc3ccc(-c4ccccc4)cn23)CC1 [Compound 45] | +++ (pIC50 ≧ 6.00) |
| CC(C)(C)CC(=O)N1CCN(Cc2c(-c3ccc(Cl)cc3)nc3ccc(-c4ccccc4)cn23)CC1 [Compound 46] | ++ (pIC50 5.00-5.99) |
| O=C(C1CCCC1)N1CCN(Cc2c(-c3ccc(Cl)cc3)nc3ccc(-c4ccccc4)cn23)CC1 [Compound 47] | +++ (pIC50 ≧ 6.00) |

| Structure (SMILES) | GLUT1 pIC50 |
| --- | --- |
| COc1cccc(-c2nc3ccc(-c4ccccc4)cn3c2CN2CCN(C(=O)c3ccc(F)cc3)CC2)c1 [Compound 49] | +++ (pIC50 ≧ 6.00) |
| Cc1ccc(-c2nc3ccc(-c4ccccc4)cn3c2CN2CCN(C(=O)c3ccc(F)cc3)CC2)cc1 [Compound 50] | +++ (pIC50 ≧ 6.00) |
| COc1cccc(-c2nc3ccc(-c4ccccc4)cn3c2CN2CCN(C(=O)c3ccco3)CC2)c1 [Compound 51] | ++ (pIC50 5.00-5.99) |
| COc1cccc(-c2nc3ccc(-c4ccccc4)cn3c2CN2CCN(C(=O)c3cccc(F)c3)CC2)c1 [Compound 52] | +++ (pIC50 ≧ 6.00) |
| O=C(c1ccc(F)cc1)N1CCN(Cc2c(-c3ccc(Cl)cc3)nc3ccc(-c4ccccc4)cn23)CC1 [Compound 53] | +++ (pIC50 ≧ 6.00) |
| COc1cccc(-c2nc3ccc(-c4ccccc4)cn3c2CN2CCN(C(=O)C(C)C)CC2)c1 [Compound 54] | ++ (pIC50 5.00-5.99) |
| CC(C)C(=O)N1CCN(Cc2c(-c3cccc([N+](=O)[O-])c3)nc3ccc(-c4ccccc4)cn23)CC1 [Compound 55] | ++ (pIC50 5.00-5.99) |
| O=C(C1CC1)N1CCN(Cc2c(-c3cccc([N+](=O)[O-])c3)nc3ccc(-c4ccccc4)cn23)CC1 [Compound 56] | ++ (pIC50 5.00-5.99) |
| COCC(=O)N1CCN(Cc2c(-c3cccc(OC)c3)nc3ccc(-c4ccccc4)cn23)CC1 [Compound 57] | ++ (pIC50 5.00-5.99) |
| CC(C)(C)CC(=O)N1CCN(Cc2c(-c3cccc([N+](=O)[O-])c3)nc3ccc(-c4ccccc4)cn23)CC1 [Compound 58] | + (pIC50 4.00-4.99) |
| CC(=O)N1CCN(Cc2c(-c3cccc([N+](=O)[O-])c3)nc3ccc(-c4ccccc4)cn23)CC1 [Compound 59] | ++ (pIC50 5.00-5.99) |
| CC(C)CC(=O)N1CCN(Cc2c(-c3cccc([N+](=O)[O-])c3)nc3ccc(-c4ccccc4)cn23)CC1 [Compound 60] | + (pIC50 4.00-4.99) |
| CC(=O)N1CCN(Cc2c(-c3ccc(Cl)cc3)nc3ccc(-c4ccccc4)cn23)CC1 [Compound 61] | +++ (pIC50 ≧ 6.00) |
| CCC(=O)N1CCN(Cc2c(-c3ccc(Cl)cc3)nc3ccc(-c4ccccc4)cn23)CC1 [Compound 62] | +++ (pIC50 ≧ 6.00) |
| O=C(Cc1ccc(F)cc1)N1CCN(Cc2c(-c3ccc(Cl)cc3)nc3ccc(-c4ccccc4)cn23)CC1 [Compound 63] | ++ (pIC50 5.00-5.99) |
| O=C(c1ccccc1Cl)N1CCN(Cc2c(-c3ccc(Cl)cc3)nc3ccc(-c4ccccc4)cn23)CC1 [Compound 64] | + (pIC50 4.00-4.99) |
| COc1cccc(-c2nc3ccc(-c4ccccc4)cn3c2CN2CCN(C(=O)CC(C)(C)C)CC2)c1 [Compound 65] | ++ (pIC50 5.00-5.99) |
| O=C(C1CCCC1)N1CCN(Cc2c(-c3cccc([N+](=O)[O-])c3)nc3ccc(-c4ccccc4)cn23)CC1 [Compound 66] | ++ (pIC50 5.00-5.99) |
| Cc1ccc(-c2nc3ccc(-c4ccccc4)cn3c2CN2CCN(C(=O)c3cccs3)CC2)cc1 [Compound 67] | +++ (pIC50 ≧ 6.00) |
